These results are taken from patent publication US20220290085A1, “CELL-SENSORY BIOSCAFFOLDS, FABRICATION METHODS AND APPLICATIONS OF SAME” (BOARD OF TRUSTEES OF THE UNIVERSITY OF ARKANSAS, priority 2019, published 2022).

Assay [1] has as its system MCF7. Briefly: Impedance on TiO2 nanowire bioscaffold sensor of DOX-treated MCF7 cells. The assay is classed as cell-based, human. Particulars: DOX 2 μM 24 hrs, then glucose 5.5 mM for 35 minutes, 1×PBS, FIG. 24. On the procedure: (§1) To investigate the cell impedance change due to the DOX, the two cell lines were first cultured to reach about 90% confluence and then the DOX (2 μM) was added over two time-intervals, about 24 hours and about 48 hours. The cells were then harvested using trypsin and counted using the hemocytometer and trypan blue stain to control the cell number. The cells were then suspended in about 10 mL of 1×PBS with the TiO2 nanowires sensor for about 35 minutes, and the impedance was tested likewise from about 40 kHz to about 1 MHz. The DOX is supposed to decrease the MCF7 impedance due to cell's resistance to the DOX. This is because the overexpressed P-glycoprotein 1 (P-gp), also called multidrug resistance protein 1 (MDR1) or ATP-binding cassette sub-family B member 1 (ABCB1) or cluster of differentiation 243 (CD243), can pump the foreign molecules out of the MCF7 cell.
(§2) The second set of experiment was done as in the first step, with glucose (5.5 mM) in the cell suspensions to investigate the cell impedance correspondence to glucose effect after being treated with DOX. The biosensors were done after about 35 minutes in the cell suspension, with the impedance parameters same as described previously.

Assay [2] deals with MCF7. As to conditions: MCF7 vs MDA-MB231; cited from earlier work.
The next assay has as its system MDA-MB231. Briefly: Impedance on TiO2 nanowire bioscaffold sensor of DOX-treated MDA-MB231 cells. The assay is classed as cell-based, human. Particulars: DOX 2 μM 24 hrs, FIG. 25. On the procedure: as §1, §2
For assay [3], the system named is breast cancer cells (MCF7). Briefly: Doxorubicin drug cytotoxicity in cell culture. The format is cell-based, human. Particulars: drug cytotoxicity assessment, FIG. 23. On the procedure:
Impedance Measurement for Doxorubicin Drug Effect on Breast Cancer Cell Lines: This test was performed to investigate the effect of a well-known chemotherapy drug Doxorubicin on two different cancer cell lines. Doxorubicin (DOX, C27H29NO11), also called Adriamycin™, is a popular chemotherapy drug for treating several types of cancer including breast cancer via triggering the cancer cell death. This drug was used to quantify the drug effect on breast cancer cells' metabolism in response to stresses from different dosages of the DOX, via monitoring the impedance signal change from the cancer cells before and after the DOX treatment. The drug cytotoxicity was assessed to determine the concentration of 2.0 μM, which the cancer cells start to die in a proper pace that can enable us to quantitatively characterize the DOX effect on the cancer cell's metabolism and apoptosis directly on the smart bioscaffold, as shown in FIG. 23.

With `COc1cccc2c1C(=O)c1c(O)c3c(c(O)c1C2=O)C[C@@](O)(C(=O)CO)C[C@@H]3O[C@H]1C[C@H](N)[C@H](O)[C@H](C)O1` [Doxorubicin], the “impedance on the bioscaffold at low frequency after DOX pre-treatment and glucose incubation” value with MCF7 [1] is given as “higher impedance”. In addition, the “resistance of MCF7 to DOX compared with MDA-MB231” value with MCF7 [2] is recorded as “more resistive”. The “response to glucose after being pre-treated with DOX” value in the assay on MDA-MB231 (glucose 5.5 mM) is recorded as “no significant response to glucose”. For the same molecule, the “impedance on the bioscaffold after DOX pre-treatment and glucose incubation” value in the assay on MDA-MB231 (then glucose 5.5 mM for 35 minutes, 1×PBS) is “lower impedance”. For the same molecule, in assay [3], the “concentration at which the cancer cells start to die in a proper pace” value amounted to 2.0 µM.
